Data reported in PubChem BioAssay (NCI).
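In this assay, cells in 96-well plates receive the compound at five concentrations for 48 hours. Endpoints are linearly interpolated between the surrounding concentrations. TGI: concentration producing complete growth inhibition.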

Assays:
Assay in all cases: NCI anticancer screen, dose series, 48 h
ACHN renal = test system: ACHN renal
SN12C renal = test system: SN12C renal
OVCAR-4 ovarian = test system: OVCAR-4 ovarian
SW-620 colon = test system: SW-620 colon
CCRF-CEM leukemia = test system: CCRF-CEM leukemia
DU-145 prostate = test system: DU-145 prostate
SF-295 CNS = test system: SF-295 CNS
RPMI-8226 leukemia = test system: RPMI-8226 leukemia
OVCAR-3 ovarian = test system: OVCAR-3 ovarian
NCI-H460 lung = test system: NCI-H460 lung
HS 578T breast = test system: HS 578T breast
CAKI-1 renal = test system: CAKI-1 renal
T-47D breast = test system: T-47D breast
A549 NSCLC = test system: A549 NSCLC
SK-OV-3 ovarian = test system: SK-OV-3 ovarian
SNB-19 CNS = test system: SNB-19 CNS
UO-31 renal = test system: UO-31 renal
OVCAR-5 ovarian = test system: OVCAR-5 ovarian
MDA-MB-231 breast = test system: MDA-MB-231 breast
MDA-N = test system: MDA-N
BT-549 breast = test system: BT-549 breast
TK-10 renal = test system: TK-10 renal
MOLT-4 leukemia = test system: MOLT-4 leukemia
EKVX NSCLC = test system: EKVX NSCLC
SF-268 CNS = test system: SF-268 CNS
KM12 colon = test system: KM12 colon
HCT-116 colon = test system: HCT-116 colon
NCI-H522 lung = test system: NCI-H522 lung
COLO 205 colon = test system: COLO 205 colon
A498 renal = test system: A498 renal
HCC-2998 colon = test system: HCC-2998 colon
NCI-H226 lung = test system: NCI-H226 lung
K-562 leukemia = test system: K-562 leukemia
PC-3 prostate = test system: PC-3 prostate
RXF 393 renal = test system: RXF 393 renal
MALME-3M melanoma = test system: MALME-3M melanoma
NCI-H23 lung = test system: NCI-H23 lung
MDA-MB-435 = test system: MDA-MB-435
SK-MEL-2 melanoma = test system: SK-MEL-2 melanoma
SF-539 CNS = test system: SF-539 CNS
M14 melanoma = test system: M14 melanoma
HOP-62 NSCLC = test system: HOP-62 NSCLC
HCT-15 colon = test system: HCT-15 colon
SNB-75 CNS = test system: SNB-75 CNS
786-0 renal = test system: 786-0 renal
HT29 colon = test system: HT29 colon
SK-MEL-28 melanoma = test system: SK-MEL-28 melanoma
SR leukemia = test system: SR leukemia
U251 CNS = test system: U251 CNS
NCI/ADR-RES ovarian = test system: NCI/ADR-RES ovarian
SK-MEL-5 melanoma = test system: SK-MEL-5 melanoma
HOP-92 NSCLC = test system: HOP-92 NSCLC
OVCAR-8 ovarian = test system: OVCAR-8 ovarian
MCF7 breast = test system: MCF7 breast
UACC-257 melanoma = test system: UACC-257 melanoma
LOX IMVI melanoma = test system: LOX IMVI melanoma
IGROV1 ovarian = test system: IGROV1 ovarian
UACC-62 melanoma = test system: UACC-62 melanoma
HL-60(TB) leukemia = test system: HL-60(TB) leukemia

Q: How did the TGI (ACHN renal) turn out when `Cc1nc2c(=O)n(C)c(=O)nc-2n(CCO)c1C` was run?
A: > 100 µM

Q: And the TGI (SN12C renal)?
A: > 100 µM

Q: What about the TGI (OVCAR-4 ovarian) of the same compound?
A: > 100 µM

Q: What about the TGI (SW-620 colon) of the same compound?
A: > 100 µM

Q: What about the TGI (CCRF-CEM leukemia) of the same compound?
A: > 100 µM

Q: And the TGI (DU-145 prostate)?
A: > 100 µM

Q: What about the TGI (SF-295 CNS) of the same compound?
A: > 100 µM

Q: What about the TGI (RPMI-8226 leukemia) of the same compound?
A: > 100 µM

Q: What about the TGI (OVCAR-3 ovarian) of the same compound?
A: > 100 µM

Q: What about the TGI (NCI-H460 lung) of the same compound?
A: > 100 µM

Q: What about the TGI (HS 578T breast) of the same compound?
A: > 100 µM

Q: What about the TGI (CAKI-1 renal) of the same compound?
A: > 100 µM

Q: What about the TGI (T-47D breast) of the same compound?
A: > 100 µM

Q: What about the TGI (A549 NSCLC) of the same compound?
A: > 100 µM

Q: And the TGI (SK-OV-3 ovarian)?
A: > 100 µM

Q: And the TGI (SNB-19 CNS)?
A: > 100 µM

Q: And the TGI (UO-31 renal)?
A: > 100 µM

Q: What about the TGI (OVCAR-5 ovarian) of the same compound?
A: > 100 µM

Q: And the TGI (MDA-MB-231 breast)?
A: > 100 µM

Q: And the TGI (MDA-N)?
A: > 100 µM

Q: What about the TGI (BT-549 breast) of the same compound?
A: > 100 µM

Q: And the TGI (TK-10 renal)?
A: > 100 µM

Q: And the TGI (MOLT-4 leukemia)?
A: > 100 µM

Q: And the TGI (EKVX NSCLC)?
A: > 100 µM

Q: And the TGI (SF-268 CNS)?
A: > 100 µM

Q: What about the TGI (KM12 colon) of the same compound?
A: > 100 µM

Q: What about the TGI (HCT-116 colon) of the same compound?
A: > 100 µM

Q: What about the TGI (NCI-H522 lung) of the same compound?
A: > 100 µM

Q: And the TGI (COLO 205 colon)?
A: > 100 µM

Q: What about the TGI (A498 renal) of the same compound?
A: > 100 µM

Q: And the TGI (HCC-2998 colon)?
A: > 100 µM

Q: And the TGI (NCI-H226 lung)?
A: > 100 µM

Q: What about the TGI (K-562 leukemia) of the same compound?
A: > 100 µM

Q: What about the TGI (PC-3 prostate) of the same compound?
A: > 100 µM

Q: And the TGI (RXF 393 renal)?
A: > 100 µM

Q: What about the TGI (MALME-3M melanoma) of the same compound?
A: > 100 µM

Q: And the TGI (NCI-H23 lung)?
A: > 100 µM

Q: And the TGI (MDA-MB-435)?
A: > 100 µM

Q: What about the TGI (SK-MEL-2 melanoma) of the same compound?
A: > 100 µM

Q: What about the TGI (SF-539 CNS) of the same compound?
A: > 100 µM

Q: What about the TGI (M14 melanoma) of the same compound?
A: > 100 µM

Q: What about the TGI (HOP-62 NSCLC) of the same compound?
A: > 100 µM

Q: And the TGI (HCT-15 colon)?
A: > 100 µM

Q: And the TGI (SNB-75 CNS)?
A: > 100 µM

Q: And the TGI (786-0 renal)?
A: > 100 µM

Q: What about the TGI (HT29 colon) of the same compound?
A: > 100 µM

Q: And the TGI (SK-MEL-28 melanoma)?
A: > 100 µM

Q: And the TGI (SR leukemia)?
A: > 100 µM

Q: And the TGI (U251 CNS)?
A: > 100 µM

Q: And the TGI (NCI/ADR-RES ovarian)?
A: > 100 µM

Q: And the TGI (SK-MEL-5 melanoma)?
A: > 100 µM

Q: And the TGI (HOP-92 NSCLC)?
A: > 100 µM

Q: What about the TGI (OVCAR-8 ovarian) of the same compound?
A: > 100 µM

Q: What about the TGI (MCF7 breast) of the same compound?
A: > 100 µM

Q: And the TGI (UACC-257 melanoma)?
A: > 100 µM

Q: And the TGI (LOX IMVI melanoma)?
A: > 100 µM

Q: And the TGI (IGROV1 ovarian)?
A: > 100 µM

Q: What about the TGI (UACC-62 melanoma) of the same compound?
A: > 100 µM

Q: Which results are given for `Cc1ccc(/C=N/Nc2cc(C)c3ccccc3n2)s1`?
A: TGI (ACHN renal): 45.4 µM; TGI (SN12C renal): 41.1 µM; TGI (OVCAR-4 ovarian): > 100 µM; TGI (SW-620 colon): > 100 µM; TGI (CCRF-CEM leukemia): > 100 µM; TGI (SF-295 CNS): 32 µM; TGI (RPMI-8226 leukemia): 29.1 µM; TGI (OVCAR-3 ovarian): 7.93 µM; TGI (HS 578T breast): > 100 µM; TGI (CAKI-1 renal): 37 µM; TGI (T-47D breast): > 100 µM; TGI (A549 NSCLC): 40.6 µM; TGI (SK-OV-3 ovarian): 43.2 µM; TGI (SNB-19 CNS): > 100 µM; TGI (UO-31 renal): > 100 µM; TGI (OVCAR-5 ovarian): 37.4 µM; TGI (MDA-MB-231 breast): 19.9 µM; TGI (MDA-N): 37.6 µM; TGI (BT-549 breast): 42 µM; TGI (TK-10 renal): > 100 µM; TGI (MOLT-4 leukemia): 45.1 µM; TGI (EKVX NSCLC): 27 µM; TGI (SF-268 CNS): > 100 µM; TGI (KM12 colon): 38.5 µM; TGI (HCT-116 colon): > 100 µM; TGI (COLO 205 colon): > 100 µM; TGI (HCC-2998 colon): 33.8 µM; TGI (NCI-H226 lung): 52.7 µM; TGI (K-562 leukemia): 39.2 µM; TGI (PC-3 prostate): 31.1 µM; TGI (RXF 393 renal): 75.5 µM; TGI (MALME-3M melanoma): 22.4 µM; TGI (NCI-H23 lung): 96.3 µM; TGI (MDA-MB-435): > 100 µM; TGI (SK-MEL-2 melanoma): > 100 µM; TGI (SF-539 CNS): 51.5 µM; TGI (M14 melanoma): 42.8 µM; TGI (HOP-62 NSCLC): 30.8 µM; TGI (HL-60(TB) leukemia): > 100 µM; TGI (HCT-15 colon): 25.6 µM; TGI (SNB-75 CNS): > 100 µM; TGI (786-0 renal): > 100 µM; TGI (HT29 colon): 18.7 µM; TGI (SK-MEL-28 melanoma): > 100 µM; TGI (SR leukemia): > 100 µM; TGI (U251 CNS): 43 µM; TGI (NCI/ADR-RES ovarian): 90.6 µM; TGI (SK-MEL-5 melanoma): 75.2 µM; TGI (HOP-92 NSCLC): 93.8 µM; TGI (OVCAR-8 ovarian): > 100 µM; TGI (MCF7 breast): 39.6 µM; TGI (UACC-257 melanoma): 50.7 µM; TGI (LOX IMVI melanoma): 78.9 µM; TGI (IGROV1 ovarian): 24.9 µM; TGI (UACC-62 melanoma): > 100 µM
